Reference: ChEMBL document CHEMBL5465560, “Selectivity Literature for EUbOPEN Chemogenomic Library” (2024)

Key:
[1] = target: Receptor tyrosine-protein kinase erbB-4 (Homo sapiens, UniProt Q15303); assay: Selectivity interaction (Kinase panel (literature)) EUB0001199aCl ERBB4; details: at 1 µM
[2] = target: Mitogen-activated protein kinase 10 (Homo sapiens, UniProt P53779); assay: Selectivity interaction (KinomeScan (DiscoverX)) EUB0000666a MAPK10; details: at 10 µM
[3] = target: Cyclin-dependent kinase 3 (Homo sapiens) (UniProt Q00526); assay: Selectivity interaction (KinomeScan (DiscoverX)) EUB0001079a CDK3; details: at 1 µM
Chain of Cyclin-dependent kinase 3 (Homo sapiens) (Q00526 whole entry, looked up): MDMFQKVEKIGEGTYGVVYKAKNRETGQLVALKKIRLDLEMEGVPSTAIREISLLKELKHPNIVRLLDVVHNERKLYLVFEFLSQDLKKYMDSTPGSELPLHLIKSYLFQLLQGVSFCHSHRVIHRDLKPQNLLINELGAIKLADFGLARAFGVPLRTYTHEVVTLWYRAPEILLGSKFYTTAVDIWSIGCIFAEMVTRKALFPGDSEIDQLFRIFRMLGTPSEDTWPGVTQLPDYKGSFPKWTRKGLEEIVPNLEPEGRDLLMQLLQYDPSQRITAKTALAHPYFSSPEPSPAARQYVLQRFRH

Adenosine receptor A2a = Adenosine receptor A2a (Homo sapiens, UniProt P29274); assay: Selectivity interaction (Adenosine 2A receptor binding assay, human recombinant ) EUB0000877a ADORA2A
Chain of Adenosine receptor A2a (P29274 whole entry): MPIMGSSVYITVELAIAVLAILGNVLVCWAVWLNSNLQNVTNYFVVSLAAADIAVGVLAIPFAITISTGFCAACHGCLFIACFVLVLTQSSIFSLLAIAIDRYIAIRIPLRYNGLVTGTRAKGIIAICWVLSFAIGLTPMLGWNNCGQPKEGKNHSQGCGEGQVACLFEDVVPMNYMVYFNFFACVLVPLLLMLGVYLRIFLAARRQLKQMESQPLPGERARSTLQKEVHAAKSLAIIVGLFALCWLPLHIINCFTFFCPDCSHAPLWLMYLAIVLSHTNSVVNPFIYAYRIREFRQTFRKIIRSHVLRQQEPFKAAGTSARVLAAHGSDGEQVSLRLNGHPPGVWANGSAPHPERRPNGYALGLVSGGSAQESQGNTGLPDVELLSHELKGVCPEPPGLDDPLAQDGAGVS

[4] = Selectivity interaction (Inhibition of ex vivo anti-IgM/IL-4 -induced proximal pAKT formation in rats) EUB0000877a PIK3CD
[5] = target: T1, Testis-specific serine/threonine-protein kinase 1 (Homo sapiens) (UniProt Q9BXA7); details: at 10 µM
T1 sequence (whole entry): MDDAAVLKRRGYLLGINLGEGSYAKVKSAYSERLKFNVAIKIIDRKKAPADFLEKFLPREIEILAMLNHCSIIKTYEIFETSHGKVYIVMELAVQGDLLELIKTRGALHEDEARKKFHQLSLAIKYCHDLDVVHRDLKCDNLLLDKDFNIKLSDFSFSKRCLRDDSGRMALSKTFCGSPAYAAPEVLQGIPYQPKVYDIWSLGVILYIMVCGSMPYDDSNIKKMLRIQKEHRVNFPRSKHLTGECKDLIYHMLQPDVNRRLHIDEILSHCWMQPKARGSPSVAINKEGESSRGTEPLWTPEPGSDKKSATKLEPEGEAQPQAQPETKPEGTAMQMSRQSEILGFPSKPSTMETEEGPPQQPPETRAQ

[6] = target: Ephrin type-A receptor 5 (Homo sapiens) (UniProt P54756); assay: Selectivity interaction (Kinase panel (DSF assay)) EUB0001559a EPHA5
[7] = target: T2, Histone-lysine N-methyltransferase EHMT1 (Homo sapiens) (UniProt Q9H9B1); assay: Selectivity interaction (Transferase panel (protein, RNA, and DNA methyltransferases. and EP300 (acetyltransferase))) EUB0000270b EHMT1
T2 sequence (whole entry): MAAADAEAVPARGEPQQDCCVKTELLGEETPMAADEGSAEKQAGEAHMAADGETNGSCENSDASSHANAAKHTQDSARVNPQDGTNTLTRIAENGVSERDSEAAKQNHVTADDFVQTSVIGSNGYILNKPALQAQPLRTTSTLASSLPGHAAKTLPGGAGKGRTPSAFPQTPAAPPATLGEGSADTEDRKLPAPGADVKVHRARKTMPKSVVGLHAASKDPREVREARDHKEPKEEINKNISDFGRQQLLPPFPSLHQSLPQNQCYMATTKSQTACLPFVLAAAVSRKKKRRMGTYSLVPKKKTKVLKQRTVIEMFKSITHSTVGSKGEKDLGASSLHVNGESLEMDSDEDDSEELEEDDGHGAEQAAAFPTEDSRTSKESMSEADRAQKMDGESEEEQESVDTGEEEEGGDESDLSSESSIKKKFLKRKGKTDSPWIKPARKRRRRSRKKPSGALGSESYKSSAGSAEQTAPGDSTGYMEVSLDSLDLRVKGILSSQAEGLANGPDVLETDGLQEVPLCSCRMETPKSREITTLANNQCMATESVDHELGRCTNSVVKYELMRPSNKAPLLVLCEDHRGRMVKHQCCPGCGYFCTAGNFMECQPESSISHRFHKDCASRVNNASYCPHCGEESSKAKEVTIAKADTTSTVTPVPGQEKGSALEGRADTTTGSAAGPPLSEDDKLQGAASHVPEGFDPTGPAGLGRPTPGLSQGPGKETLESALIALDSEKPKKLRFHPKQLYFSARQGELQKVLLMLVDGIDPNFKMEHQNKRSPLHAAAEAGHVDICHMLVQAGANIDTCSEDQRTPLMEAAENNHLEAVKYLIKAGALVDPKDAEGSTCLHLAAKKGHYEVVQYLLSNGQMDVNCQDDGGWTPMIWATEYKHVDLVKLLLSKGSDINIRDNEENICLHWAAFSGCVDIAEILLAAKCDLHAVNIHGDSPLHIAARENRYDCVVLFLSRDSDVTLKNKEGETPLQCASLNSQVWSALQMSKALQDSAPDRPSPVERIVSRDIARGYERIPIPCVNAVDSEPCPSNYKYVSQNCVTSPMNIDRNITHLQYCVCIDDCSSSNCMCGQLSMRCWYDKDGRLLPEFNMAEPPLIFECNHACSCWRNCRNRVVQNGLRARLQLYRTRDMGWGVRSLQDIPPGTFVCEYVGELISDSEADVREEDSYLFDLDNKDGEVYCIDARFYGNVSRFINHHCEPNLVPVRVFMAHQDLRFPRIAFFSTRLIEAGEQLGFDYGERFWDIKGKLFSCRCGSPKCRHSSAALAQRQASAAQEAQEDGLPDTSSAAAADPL

[8] = target: Serine/threonine-protein kinase PLK1 (Homo sapiens, UniProt P53350); assay: Selectivity interaction (ActivX KiNativ screen (kinase selectivity in THP-1 cell lysates)) EUB0000639a PLK1; assay type: subcellular; details: lysate, at 1 µM
Chain of Serine/threonine-protein kinase PLK1 (P53350 whole entry): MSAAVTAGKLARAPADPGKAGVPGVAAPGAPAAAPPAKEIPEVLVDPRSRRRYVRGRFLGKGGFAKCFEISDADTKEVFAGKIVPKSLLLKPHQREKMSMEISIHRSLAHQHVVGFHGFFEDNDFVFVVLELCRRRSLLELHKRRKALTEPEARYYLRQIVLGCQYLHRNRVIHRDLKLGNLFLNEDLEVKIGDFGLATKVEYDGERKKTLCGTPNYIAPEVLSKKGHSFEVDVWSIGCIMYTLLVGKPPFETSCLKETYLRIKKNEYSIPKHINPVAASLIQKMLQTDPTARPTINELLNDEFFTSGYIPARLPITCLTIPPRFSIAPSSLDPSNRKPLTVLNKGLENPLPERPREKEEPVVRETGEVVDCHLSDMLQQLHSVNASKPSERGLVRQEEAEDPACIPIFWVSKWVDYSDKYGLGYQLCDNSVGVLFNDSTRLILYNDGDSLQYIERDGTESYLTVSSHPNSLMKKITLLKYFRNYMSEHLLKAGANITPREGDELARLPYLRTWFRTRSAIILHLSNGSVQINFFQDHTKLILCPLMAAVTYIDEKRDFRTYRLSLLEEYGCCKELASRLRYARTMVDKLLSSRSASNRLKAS

[9] = target: Ribosomal protein S6 kinase alpha-2 (Homo sapiens) (UniProt Q15349); assay: Selectivity interaction (ActivX KiNativ screen (kinase selectivity in THP-1 cell lysates)) EUB0000639a RPS6KA2; assay type: subcellular; details: lysate, at 1 µM
Chain of Ribosomal protein S6 kinase alpha-2 (Homo sapiens) (Q15349 whole entry): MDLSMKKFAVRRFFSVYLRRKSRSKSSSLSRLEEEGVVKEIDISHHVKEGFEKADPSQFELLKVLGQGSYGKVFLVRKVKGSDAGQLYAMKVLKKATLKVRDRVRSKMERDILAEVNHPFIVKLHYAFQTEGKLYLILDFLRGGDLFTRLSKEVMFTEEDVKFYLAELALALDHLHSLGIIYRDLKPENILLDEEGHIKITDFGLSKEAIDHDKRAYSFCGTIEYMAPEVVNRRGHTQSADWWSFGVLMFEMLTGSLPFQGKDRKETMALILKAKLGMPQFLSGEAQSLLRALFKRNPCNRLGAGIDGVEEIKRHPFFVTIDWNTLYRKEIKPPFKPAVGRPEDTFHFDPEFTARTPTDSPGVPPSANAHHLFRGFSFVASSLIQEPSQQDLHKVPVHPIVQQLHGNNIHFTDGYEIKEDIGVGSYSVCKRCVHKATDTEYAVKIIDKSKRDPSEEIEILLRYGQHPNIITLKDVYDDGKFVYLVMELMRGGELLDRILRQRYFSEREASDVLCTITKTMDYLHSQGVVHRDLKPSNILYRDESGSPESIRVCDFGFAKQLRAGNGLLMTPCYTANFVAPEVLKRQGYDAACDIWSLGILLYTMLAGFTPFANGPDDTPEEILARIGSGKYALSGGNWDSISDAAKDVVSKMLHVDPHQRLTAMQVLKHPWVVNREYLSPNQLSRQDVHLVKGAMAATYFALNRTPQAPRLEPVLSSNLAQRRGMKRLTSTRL

[10] = target: T3, Mitogen-activated protein kinase kinase kinase kinase 4 (Homo sapiens, UniProt O95819); assay: Selectivity interaction (KinomeScan (DiscoverX)) EUB0000595a MAP4K4; details: at 10 µM
T3 sequence (O95819 2-1239 limits assumed): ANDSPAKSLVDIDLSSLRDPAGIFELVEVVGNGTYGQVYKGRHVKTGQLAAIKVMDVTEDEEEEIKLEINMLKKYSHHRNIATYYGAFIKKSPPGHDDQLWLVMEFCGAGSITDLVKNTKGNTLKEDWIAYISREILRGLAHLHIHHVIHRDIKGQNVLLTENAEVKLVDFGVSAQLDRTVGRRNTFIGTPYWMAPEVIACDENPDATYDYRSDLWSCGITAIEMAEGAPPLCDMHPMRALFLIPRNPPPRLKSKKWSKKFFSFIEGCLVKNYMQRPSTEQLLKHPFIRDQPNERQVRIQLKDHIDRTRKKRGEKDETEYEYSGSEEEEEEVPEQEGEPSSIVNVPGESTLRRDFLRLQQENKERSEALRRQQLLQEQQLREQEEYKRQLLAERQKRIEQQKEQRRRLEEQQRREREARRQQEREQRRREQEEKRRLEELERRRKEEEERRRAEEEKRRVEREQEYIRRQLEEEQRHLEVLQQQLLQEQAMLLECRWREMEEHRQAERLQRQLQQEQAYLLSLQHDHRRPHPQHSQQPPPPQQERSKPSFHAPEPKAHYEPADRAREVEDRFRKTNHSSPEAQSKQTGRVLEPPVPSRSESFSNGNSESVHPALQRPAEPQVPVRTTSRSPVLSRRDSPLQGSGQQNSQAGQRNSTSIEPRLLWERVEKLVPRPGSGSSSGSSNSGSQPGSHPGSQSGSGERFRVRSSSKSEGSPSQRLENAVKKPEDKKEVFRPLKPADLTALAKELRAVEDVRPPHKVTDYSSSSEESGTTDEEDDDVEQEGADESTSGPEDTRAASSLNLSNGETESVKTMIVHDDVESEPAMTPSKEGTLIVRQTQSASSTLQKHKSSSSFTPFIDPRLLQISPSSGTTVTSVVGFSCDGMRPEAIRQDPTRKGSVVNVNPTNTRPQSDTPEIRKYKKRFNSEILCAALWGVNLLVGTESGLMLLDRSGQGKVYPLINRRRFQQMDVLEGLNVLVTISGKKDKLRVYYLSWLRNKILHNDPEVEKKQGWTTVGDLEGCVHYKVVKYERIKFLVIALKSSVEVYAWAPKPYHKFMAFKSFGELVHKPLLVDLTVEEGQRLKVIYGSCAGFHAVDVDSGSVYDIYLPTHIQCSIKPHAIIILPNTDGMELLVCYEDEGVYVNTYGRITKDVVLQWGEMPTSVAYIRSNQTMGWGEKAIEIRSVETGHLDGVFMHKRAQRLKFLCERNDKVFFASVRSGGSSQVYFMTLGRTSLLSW

[11] = target: Non-receptor tyrosine-protein kinase TYK2 (Homo sapiens, UniProt P29597); assay: Selectivity interaction (KinomeScan (DiscoverX)) EUB0000045b TYK2; details: at 1 µM
[12] = target: Serine/threonine-protein kinase/endoribonuclease IRE1 (Homo sapiens) (UniProt O75460); details: at 10 µM
[13] = target: T3, Mitogen-activated protein kinase kinase kinase kinase 4; assay: Selectivity interaction (SelectScreen profiling (Invitrogen)) EUB0000607a MAP4K4; details: at 2 µM

Chain of Receptor tyrosine-protein kinase erbB-4 (Q15303 whole entry): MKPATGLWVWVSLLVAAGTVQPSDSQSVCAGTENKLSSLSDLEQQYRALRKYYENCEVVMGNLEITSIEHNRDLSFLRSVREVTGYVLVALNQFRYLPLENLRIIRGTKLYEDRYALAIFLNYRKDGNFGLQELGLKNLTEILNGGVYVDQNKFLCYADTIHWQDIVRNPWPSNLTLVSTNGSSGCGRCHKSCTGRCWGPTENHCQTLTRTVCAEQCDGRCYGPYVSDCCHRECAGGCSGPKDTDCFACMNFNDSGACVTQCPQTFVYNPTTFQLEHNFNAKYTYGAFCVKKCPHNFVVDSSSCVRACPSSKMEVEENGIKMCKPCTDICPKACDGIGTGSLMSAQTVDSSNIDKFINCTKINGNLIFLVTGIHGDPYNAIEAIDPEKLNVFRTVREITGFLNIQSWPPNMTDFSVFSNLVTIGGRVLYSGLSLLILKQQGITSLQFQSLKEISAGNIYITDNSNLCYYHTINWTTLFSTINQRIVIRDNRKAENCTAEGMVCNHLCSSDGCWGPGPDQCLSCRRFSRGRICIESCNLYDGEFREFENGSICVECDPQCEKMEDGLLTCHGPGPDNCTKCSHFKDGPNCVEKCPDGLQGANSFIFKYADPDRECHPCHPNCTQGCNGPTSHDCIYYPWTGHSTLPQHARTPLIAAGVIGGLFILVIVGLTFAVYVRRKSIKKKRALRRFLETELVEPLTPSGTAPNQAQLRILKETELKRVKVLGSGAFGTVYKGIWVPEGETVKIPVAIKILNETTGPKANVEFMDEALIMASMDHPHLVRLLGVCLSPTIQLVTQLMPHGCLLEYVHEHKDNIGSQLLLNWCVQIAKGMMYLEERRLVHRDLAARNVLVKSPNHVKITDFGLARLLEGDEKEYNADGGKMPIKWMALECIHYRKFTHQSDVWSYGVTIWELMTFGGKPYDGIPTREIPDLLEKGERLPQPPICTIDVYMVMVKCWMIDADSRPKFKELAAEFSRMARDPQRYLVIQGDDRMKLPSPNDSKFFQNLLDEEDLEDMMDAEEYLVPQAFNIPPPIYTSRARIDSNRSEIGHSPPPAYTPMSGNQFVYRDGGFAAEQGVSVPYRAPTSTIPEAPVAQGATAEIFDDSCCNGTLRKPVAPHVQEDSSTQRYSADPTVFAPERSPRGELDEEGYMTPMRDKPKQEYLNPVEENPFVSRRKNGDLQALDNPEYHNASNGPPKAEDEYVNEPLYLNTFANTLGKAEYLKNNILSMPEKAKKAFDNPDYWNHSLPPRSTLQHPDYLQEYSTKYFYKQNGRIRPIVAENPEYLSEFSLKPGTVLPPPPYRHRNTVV
Chain of Mitogen-activated protein kinase 10 (P53779 whole entry): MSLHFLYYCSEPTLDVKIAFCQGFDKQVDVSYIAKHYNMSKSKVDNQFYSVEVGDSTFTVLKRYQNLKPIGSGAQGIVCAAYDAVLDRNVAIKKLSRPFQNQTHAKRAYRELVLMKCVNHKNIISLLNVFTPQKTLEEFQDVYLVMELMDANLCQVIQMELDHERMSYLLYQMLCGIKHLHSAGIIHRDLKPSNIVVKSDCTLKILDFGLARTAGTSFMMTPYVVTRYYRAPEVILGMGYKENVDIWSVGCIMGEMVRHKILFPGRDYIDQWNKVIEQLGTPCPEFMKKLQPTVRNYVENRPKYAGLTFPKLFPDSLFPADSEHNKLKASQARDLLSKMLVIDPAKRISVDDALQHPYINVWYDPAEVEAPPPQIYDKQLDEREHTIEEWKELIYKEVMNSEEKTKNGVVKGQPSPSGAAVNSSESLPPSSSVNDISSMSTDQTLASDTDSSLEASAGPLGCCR

## CN1Cc2nccc(-c3cn(C)nc3-c3ccc(F)cc3)c2C1=O
[1]
  % of inhibition: 15%

## O=C(NOC[C@H](O)CO)c1ccc(F)c(F)c1Nc1ccc(I)cc1F
[2]
  % of control: 90%

## Nc1cnc(N2CCc3cc(S(=O)(=O)Nc4c(F)cc(Cl)cc4F)cc(N4CCCC4=O)c32)nc1 [TP-020n]
[3]
  % of control: 100%

## CCC(=O)N1CC[C@H](Nc2ncnc3c2CN(c2cnc(OC)c(C(F)(F)F)c2)CC3)C1 [LENIOLISIB]
Adenosine receptor A2a
  IC50: > 30 µM
[4]
  EC50: 0.083 µM

## CCN(CC)CCCCNc1ncc2cc(-c3cc(OC)cc(OC)c3)c(NC(=O)NC(C)(C)C)nc2n1
[5]
  % of control: 100%

## CN(C(=O)c1cnn2cccnc12)c1cc2c(cc1N1CCOCC1)C(=O)N(C[C@@H](F)C(C)(C)O)C2
[6]
  dTM: -0.3 K

## Cc1cc(CN)cc(C)c1-c1ncn(C)c1-c1cncn1C
[7]; at 1 µM
  % activity: > 90%
[7]; at 10 µM
  % activity: > 80%

## CC[C@@H]1[C@H](F)C(=O)N[C@@H]1COc1nccc2cc(C(N)=O)c(OC)cc12 [ZIMLOVISERTIB]
[8]
  % of inhibition: -2.8%
[9]
  % of inhibition: 8%

## COCC(=O)NC/C=C/c1ccc2ncnc(Nc3ccc(Oc4ccc(C)nc4)c(C)c3)c2c1 [CP-724714]
[10]
  % of control: 97%

## C=CC(=O)Nc1cc(-n2c(=O)ccc3cnc4ccc(-c5ccc(NS(C)(=O)=O)cc5)cc4c32)ccc1C
[11]
  % of control: 80%

## Cc1cc([C@@H](C)Nc2ccccc2C(=O)O)c2nc(N3CCOCC3)cc(=O)n2c1 [AZD-6482]
[12]
  % of control: 91%

## CNC(=O)Nc1ccc(-c2nc(N3CC4CCC(C3)O4)c3cnn(C4CCC5(CC4)OCCO5)c3n2)cc1
[13]
  % of inhibition: 10%
